# Values of other authors in patent publication US9920347B2, “Methods for producing virus particles with simplified glycosylation of surface proteins” (priority 2010, dated 2018).
# Assays:
# [1] = biological target: alpha-glucosidase amyloglucosidase (Aspergillus niger, UniProt P69328); conditions: read-out: concentration giving 50% inhibition of amyloglucosidase
# intact cells = conditions: glycoproteins with Man7-9(GlcNAc)2 structures accumulate
# [2] = tested on: animal Golgi enzyme, mannosidase I
# [3] = tested on: rat epididymal α-mannosidase
# Golgi mannosidase II = biological target: T1, Golgi mannosidase II (Homo sapiens, UniProt Q16706)
# T1 sequence (Q16706 1-1144): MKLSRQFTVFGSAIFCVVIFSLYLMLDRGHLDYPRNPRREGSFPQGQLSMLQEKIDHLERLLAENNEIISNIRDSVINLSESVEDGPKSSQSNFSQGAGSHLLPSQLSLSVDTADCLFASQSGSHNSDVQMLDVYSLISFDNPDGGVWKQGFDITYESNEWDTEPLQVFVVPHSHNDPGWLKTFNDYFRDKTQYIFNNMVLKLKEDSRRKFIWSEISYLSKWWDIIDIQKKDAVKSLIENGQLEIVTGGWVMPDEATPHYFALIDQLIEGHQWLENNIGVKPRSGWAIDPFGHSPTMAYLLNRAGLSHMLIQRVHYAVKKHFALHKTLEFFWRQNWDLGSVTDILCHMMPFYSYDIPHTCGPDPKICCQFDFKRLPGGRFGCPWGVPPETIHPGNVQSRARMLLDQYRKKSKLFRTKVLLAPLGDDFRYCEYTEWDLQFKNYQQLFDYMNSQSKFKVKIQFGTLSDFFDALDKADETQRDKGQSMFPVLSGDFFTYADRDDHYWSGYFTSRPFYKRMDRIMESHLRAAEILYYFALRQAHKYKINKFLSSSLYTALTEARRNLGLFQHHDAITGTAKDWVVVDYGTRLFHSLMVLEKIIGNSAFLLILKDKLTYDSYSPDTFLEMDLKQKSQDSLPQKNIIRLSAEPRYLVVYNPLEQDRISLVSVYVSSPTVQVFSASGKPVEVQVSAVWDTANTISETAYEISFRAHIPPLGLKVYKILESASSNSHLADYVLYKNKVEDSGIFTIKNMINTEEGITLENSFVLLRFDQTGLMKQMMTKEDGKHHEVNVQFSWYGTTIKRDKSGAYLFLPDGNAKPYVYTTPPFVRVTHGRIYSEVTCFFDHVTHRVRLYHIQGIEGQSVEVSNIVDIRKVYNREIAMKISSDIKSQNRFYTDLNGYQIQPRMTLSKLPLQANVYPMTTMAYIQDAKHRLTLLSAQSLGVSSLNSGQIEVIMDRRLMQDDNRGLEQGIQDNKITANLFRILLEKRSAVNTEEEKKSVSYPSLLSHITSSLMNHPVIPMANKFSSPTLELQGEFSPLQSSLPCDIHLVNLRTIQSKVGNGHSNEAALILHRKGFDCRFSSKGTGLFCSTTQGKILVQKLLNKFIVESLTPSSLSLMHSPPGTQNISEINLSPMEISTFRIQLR
# alpha-glucosidase amyloglucosidase, sequence (P69328 25-640): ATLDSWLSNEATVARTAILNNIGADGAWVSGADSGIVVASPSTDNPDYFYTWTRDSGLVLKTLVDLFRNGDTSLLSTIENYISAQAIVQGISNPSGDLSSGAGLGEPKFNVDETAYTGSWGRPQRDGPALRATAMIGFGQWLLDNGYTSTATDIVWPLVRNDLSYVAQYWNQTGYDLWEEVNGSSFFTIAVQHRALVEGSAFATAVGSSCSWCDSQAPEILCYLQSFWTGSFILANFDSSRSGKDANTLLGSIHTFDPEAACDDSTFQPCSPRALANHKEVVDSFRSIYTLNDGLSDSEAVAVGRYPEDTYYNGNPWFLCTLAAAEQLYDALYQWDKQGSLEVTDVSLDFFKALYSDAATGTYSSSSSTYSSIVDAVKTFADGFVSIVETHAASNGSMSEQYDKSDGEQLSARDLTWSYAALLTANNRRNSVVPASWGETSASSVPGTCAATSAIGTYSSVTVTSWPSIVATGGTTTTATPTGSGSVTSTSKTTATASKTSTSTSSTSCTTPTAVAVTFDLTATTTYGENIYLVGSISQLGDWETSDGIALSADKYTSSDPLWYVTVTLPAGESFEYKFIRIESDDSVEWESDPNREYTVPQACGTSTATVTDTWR
compound,measurement,setting,value
OC[C@@H]1[C@@H](O)[C@H](O)[C@H]2[C@@H](O)CCN21 [Australine],inhibition of beta-mannosidase,beta-mannosidase,did not inhibit
same,inhibition of beta-galactosidase,beta-galactosidase,did not inhibit
same,inhibition of beta-glucosidase,beta-glucosidase,did not inhibit
same,inhibition of alpha-galactosidase,alpha-galactosidase,did not inhibit
same,IC50,[1],5.8 µM
same,inhibition of alpha-mannosidase,alpha-mannosidase,did not inhibit
O[C@H]1[C@H](O)[C@@H](O)CN2CC[C@H](O)[C@H]12 [Castanospermine],inhibition of alpha-glucosidase activities,alpha-glucosidase,inhibits
same,inhibition of dengue virus infection,dengue virus,inhibits
OC[C@H]1NC[C@@H](O)[C@@H](O)[C@@H]1O [Deoxymannojirimycin],prevention of formation of complex chains,cultured mammalian cells; 50 μg/ml,does not prevent the formation of all complex chains
same,inhibition of rat liver mammosidase I,rat liver mammosidase I,fairly potent inhibitor
same,effect on synthesis of complex types of N-linked oligosaccharides,intact cells,blocked the synthesis of complex types of N-linked oligosaccharides
O=C1N[C@@H]2[C@@H](O)[C@@H](O)[C@H](O)[C@@H](CO)N2C1=O [Kifunensine],shift of N-linked oligosaccharides from complex chains to Man9(GlcNAc)2 structures,cultured mammalian cells; 1 μg/ml or higher,complete shift
same,inhibition of mannosidase I,[2],inhibits
CS[C@@H]1[C@@H](N)[C@@H](O)[C@@H](O)[C@H]1O [Mannostatin A],inhibition of rat epididymal α-mannosidase,[3],potent inhibitor
O[C@H]1[C@H]2[C@H](O)CCCN2C[C@H]1O [Swainsonine],inhibition of Golgi mannosidase II,Golgi mannosidase II,potent inhibitor
same,effect on mannosidase 1,mannosidase 1,no effect
